13 molecules from patent US20160159773A1, “HETEROCYCLIC COMPOUND” (TAKEDA PHARMACEUTICAL COMPANY LIMITED, priority 2013, published 2016) can be followed below.

Where a name gives a salt, the structure may show the parent alone.

T1 sequence (P29597 whole entry): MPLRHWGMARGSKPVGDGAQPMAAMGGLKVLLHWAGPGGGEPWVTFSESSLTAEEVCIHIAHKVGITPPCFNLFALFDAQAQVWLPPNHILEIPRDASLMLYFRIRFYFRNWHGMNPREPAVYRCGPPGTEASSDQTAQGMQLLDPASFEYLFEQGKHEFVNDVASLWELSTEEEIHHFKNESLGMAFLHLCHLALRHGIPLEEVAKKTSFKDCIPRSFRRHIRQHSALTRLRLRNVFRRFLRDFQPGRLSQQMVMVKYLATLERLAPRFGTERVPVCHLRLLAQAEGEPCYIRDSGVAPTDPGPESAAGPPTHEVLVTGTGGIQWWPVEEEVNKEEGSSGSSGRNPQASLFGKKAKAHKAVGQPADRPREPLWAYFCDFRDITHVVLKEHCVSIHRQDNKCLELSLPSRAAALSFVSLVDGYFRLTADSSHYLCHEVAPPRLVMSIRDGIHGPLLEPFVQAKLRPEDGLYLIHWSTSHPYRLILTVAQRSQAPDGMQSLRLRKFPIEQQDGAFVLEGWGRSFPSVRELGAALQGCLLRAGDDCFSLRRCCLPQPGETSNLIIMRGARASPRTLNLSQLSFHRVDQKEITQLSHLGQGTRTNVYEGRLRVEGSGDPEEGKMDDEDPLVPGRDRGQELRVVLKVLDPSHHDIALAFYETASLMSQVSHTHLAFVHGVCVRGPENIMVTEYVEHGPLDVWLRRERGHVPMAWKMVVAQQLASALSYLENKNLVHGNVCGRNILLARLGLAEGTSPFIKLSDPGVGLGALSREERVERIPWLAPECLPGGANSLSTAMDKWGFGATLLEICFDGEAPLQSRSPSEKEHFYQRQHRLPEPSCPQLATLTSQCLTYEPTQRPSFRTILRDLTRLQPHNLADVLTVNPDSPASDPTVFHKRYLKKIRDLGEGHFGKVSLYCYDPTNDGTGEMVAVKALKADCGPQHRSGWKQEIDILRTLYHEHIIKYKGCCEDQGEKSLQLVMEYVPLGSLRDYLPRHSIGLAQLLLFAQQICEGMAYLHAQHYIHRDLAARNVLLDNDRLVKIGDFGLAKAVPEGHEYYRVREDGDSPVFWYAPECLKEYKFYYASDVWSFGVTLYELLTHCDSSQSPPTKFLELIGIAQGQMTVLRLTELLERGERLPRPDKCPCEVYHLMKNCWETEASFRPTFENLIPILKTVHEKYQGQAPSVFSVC

The test concerns the target T1, Tyk2 (Homo sapiens, UniProt P29597).
T1 construct: purchased Invitrogen
In words: Tyk2 enzyme inhibition test (LANCE method). The format is biochemical. The following applies: test compound 1 μM; well without enzyme = 100% inhibition; read-out: Tyk2 enzyme inhibitory activity (%, 1 μM). Here is the method: Tyk2 Enzyme Inhibition Test
Tyk2 enzyme inhibitory activity of test compounds was measured by LANCE method (PerkinElmer). First, a test compound diluted with assay buffer (50 mM HEPES (pH=7.5), 10 mM MgCl2, 1 mM EGTA, 2 mM DTT, 0.01% Tween20, 0.01% BSA) was added to 384-well plate at 2 μL each. Then, a Tyk2 (Invitrogen) solution and a fluorescence-labeled peptide substrate (ULight-JAK1, PerkinElmer) solution diluted with assay buffer at 375 ng/mL and 300 nM, respectively were added at 2 μL each. Then, enzyme reaction was started by adding 2 μL each of ATP solution prepared with assay buffer at 30 μM. After the reaction at room temperature for 1 hr, Detection Buffer (PerkinElmer) prepared to be 20 mM EDTA, 4 nM europium-labeled anti-phosphotyrosine antibody (PerkinElmer) was added at 6 μL each. After standing at room temperature for 1 hr, fluorescence intensity (excitation wavelength 340 nm, fluorescence wavelength 665 nm, delay time 100 microsecond) was measured by a plate reader, Envision (PerkinElmer). The inhibitory activity of each compound was calculated as relative value where fluorescence intensity of a well without enzyme is considered as 100% inhibition.
(In TR-FRET formats the signal depends on donor and acceptor labels being close together.)
Consider `CC(C)(O)c1ccc(Nc2cc(N3CC[C@@](C#N)(C4CC4)C3=O)ccn2)nc1` [Example 3, (3S)-3-cyclopropyl-1-(2-((5-(2-hydroxypropan-2-yl)pyridin-2-yl)amino)pyridin-4-yl)-2-oxopyrrolidine-3-carbonitrile], for which the inhibition at 1 µM came out at 99%. The value for `N#C[C@@]1(C2CC2)CCN(c2ccnc(Nc3cc(C(F)(F)F)ncn3)c2)C1=O` [Example 43, (3S)-3-cyclopropyl-2-oxo-1-(2-((6-(trifluoromethyl)pyrimidin-4-yl)amino)pyridin-4-yl)pyrrolidine-3-carbonitrile] was 95%; that for `Cn1nc(Nc2cc(N3CC[C@@](C#N)(C4CC4)C3=O)ccn2)cc1C(N)=O` [Example 138, 3-((4-((3S)-3-cyano-3-cyclopropyl-2-oxopyrrolidin-1-yl)pyridin-2-yl)amino)-1-methyl-1H-pyrazole-5-carboxamide] was 102%. With `CNC(=O)c1cc(Nc2cc(N3C(=O)[C@](C#N)(C4CC4)C[C@H]3C)ccn2)nn1C` [Example 136, 3-((4-((3S,5R)-3-cyano-3-cyclopropyl-5-methyl-2-oxopyrrolidin-1-yl)pyridin-2-yl)amino)-N,1-dimethyl-1H-pyrazole-5-carboxamide] the figure was 106%; with `CC(C)(CO)n1cc(Nc2cc(N3CCC(C#N)(C4CC4)C3=O)ccn2)cn1` (stereo not shown) [Example 129, 3-cyclopropyl-1-(2-((1-(1-hydroxy-2-methylpropan-2-yl)-1H-pyrazol-4-yl)amino)pyridin-4-yl)-2-oxopyrrolidine-3-carbonitrile], 90%; with `N#C[C@@]1(C2CC2)CCN(c2ccnc(Nc3cccnn3)c2)C1=O` [Example 92, (3S)-3-cyclopropyl-2-oxo-1-(2-(pyridazin-3-ylamino)pyridin-4-yl)pyrrolidine-3-carbonitrile], 96%. The value for `N#C[C@@]1(C2CC2)CCN(c2ccnc(Nc3ccc(N4CCOCC4)cn3)c2)C1=O` [Example 1, (3S)-3-cyclopropyl-1-(2-((5-(morpholin-4-yl)pyridin-2-yl)amino)pyridin-4-yl)-2-oxopyrrolidine-3-carbonitrile] was 99%; that for `N#CC1(C2CC2)CCN(c2ccnc(Nc3ccc(N4CCOCC4)cn3)c2)C1=O` (stereo not shown) [Example 127, 3-cyclopropyl-1-(2-((5-(morpholin-4-yl)pyridin-2-yl)amino)pyridin-4-yl)-2-oxopyrrolidine-3-carbonitrile] was 83%; that for `Cn1nc(Nc2cc(N3CC[C@@](C#N)(C4CC4)C3=O)ccn2)cc1N1CCOCC1` [Example 31, (3S)-3-cyclopropyl-1-(2-((1-methyl-5-(morpholin-4-yl)-1H-pyrazol-3-yl)amino)pyridin-4-yl)-2-oxopyrrolidine-3-carbonitrile] was 100%.

For `CCC1(C#N)CCN(c2ccnc(Nc3ccc(N4CCOCC4)cn3)c2)C1=O` (stereo not shown) [Example 126, 3-ethyl-1-(2-((5-(morpholin-4-yl)pyridin-2-yl)amino)pyridin-4-yl)-2-oxopyrrolidine-3-carbonitrile hydrochloride], the inhibition at 1 µM was 72%. The value for `CNC(=O)c1cc(Nc2cc(N3CC[C@@](C#N)(C4CC4)C3=O)ccn2)nn1C` [Example 5, 3-((4-((3S)-3-cyano-3-cyclopropyl-2-oxopyrrolidin-1-yl)pyridin-2-yl)amino)-N,1-dimethyl-1H-pyrazole-5-carboxamide] was 101%.

Regarding `C[C@@H]1C[C@@](C#N)(C2CC2)C(=O)N1c1ccnc(Nc2cc(C(N)=O)n(C)n2)c1` [Example 137, 3-((4-((3S,5R)-3-cyano-3-cyclopropyl-5-methyl-2-oxopyrrolidin-1-yl)pyridin-2-yl)amino)-1-methyl-1H-pyrazole-5-carboxamide], the inhibition at 1 µM was found to be 107%. With `CC(=O)Nc1ccnc(Nc2cc(N3CC[C@@](C#N)(C4CC4)C3=O)ccn2)c1` [Example 29, N-(2-((4-((3S)-3-cyano-3-cyclopropyl-2-oxopyrrolidin-1-yl)pyridin-2-yl)amino)pyridin-4-yl)acetamide] the figure was 100%.
